Patent US20030113321A1, “Novel G-protein-coupled receptor protein and its DNA” (priority 2000, published 2003)

Assays:
Type in all cases: cell-based
[1] = molecular target: T1, TGR4 (Homo sapiens, UniProt Q9H1C0); assay: Reporter gene (CRE-luciferase) expression level in cells with transient TGR4 expression; set-up: expressed in transfected cells; host or cells: CHO-mock cells (CHO(dhfr-) transformed with pAKKO-111H), transiently transfected with pAK-TGR4, pAK-Gi and pCRE-Luc; settings: TGR4 gene-transfected CHO-mock cells (co-transfected with pAK-Gi and pCRE-Luc), 4 hours, FIG. 4
Source text: TGR4 cDNA or inhibitory G protein α subunit Gi cDNA was inserted into the animal cell expression vector plasmid pAKKO-111H (the plasmid vector identical to the pAKKO-1.11H described in Biochim. Biophys. Acta, Hinuma, S., et al., 1219, 251-259, 1994) by publicly known methods. The expression vector plasmids pAK-TGR4 and pAK-Gi thus produced and pAKKO-111H without any particular gene inserted were transfected to CHO cells by the following procedures.
First, using these vectors, Escherichia coli JM109 was transformed; after the colony obtained was isolated and incubated, a plasmid was prepared using QIAGEN Plasmid Maxi Kit (Qiagen, Inc.). […]
Geranylgeranyl diphosphate (GGPP, Sigma, Inc.), farnesyl diphosphate (FPP, Sigma, Inc.) and lysophosphatidic acid (LPA, Sigma, Inc.) were diluted in the assay buffer, respectively, and each dilution was added to the transfected CHO-mock cells described above in a concentration of 1, 0.1 and 0.01 μM, followed by incubation at 37° C. for 4 hours under 5% CO2. The culture supernatant was discarded and 50 μl of a substrate for assaying an luciferase activity or PicaGene LT 2.0 (Toyo Ink Mfg. Co., Ltd.) was added, and the luminescence amount of luciferase was assayed by using a plate reader (ARVO sx multi-label counter, Walac, Inc.).

[2] = molecular target: T1, TGR4; assay: Intracellular calcium ion mobilization activity in TGR4-expressed CHO cells (FLIPR); set-up: expressed in transfected cells; host or cells: CHO cells stably expressing TGR4 (CHO-TGR4); settings: 2.5 μM; CHO-TGR4 compared with CHO-mock cells; about 3 minutes after addition; FIGS. 5 and 6
Protocol: Using the plasmids for TGR4 expression prepared in EXAMPLE 3, CHO-TGR4 as CHO cells for stable TGR4 expression was prepared by a publicly known method. CHO-mock cells with neither CHO-TGR4 nor receptor gene introduced were plated in a 96-well black plate (Costar, Inc.) with the clear bottom in a concentration of 3000 cells/well, and cultured overnight at 37° C. under 5% CO2. The culture solution was used for assay. A wash buffer was prepared by adding 20 mM HEPES, pH 7.4 and 2.5 mM probenecid (Sigma, Inc.) to Hank's balanced salt solution (HBSS, Gibco BRL, Inc.). As a sample buffer, the wash buffer supplemented with 0.1% bovine serum albumin (BSA, Sigma, Inc.) was used. As a dye loading solution there was used a mixture prepared by adding 1% FBS, 4 μM Fluo 3-AM (Wako Pure Chemical Industry Co., Ltd.) and 0.04% Pluronic acid (Molecular Probes, Inc.) to the wash buffer. The medium of the cells was discarded and the dye loading solution was added. After incubation at 37° C. for an hour, the cells were washed with the wash buffer using a plate washer. The cells were set on Fluorometric Imaging Plate Reader (FLIPR, Molecular Devices, Inc.) and a change of the intracellular calcium ion level was measured for about 3 minutes after addition of the sample. As the sample, FPP or LPA was added in a concentration of 2.5 μM.

[3] = molecular target: T1, TGR4; assay: Intracellular cAMP production amount in TGR4-expressed CHO cells; set-up: expressed in transfected cells; host or cells: CHO cells stably expressing TGR4 (CHO-TGR4); settings: 2 μM; CHO-TGR4 compared with CHO-mock cells; 30 minutes at 37° C.; n is 3; FIGS. 7 and 8
Protocol: CHO-mock cells with neither CHO-TGR4 nor receptor gene introduced, which were prepared in EXAMPLE 4, were plated in a 96-well plate (Beckton-Dickinson, Inc.) in 25,000 cells/well, followed by incubation overnight at 37° C. under 5% CO2. This culture solution was used for assay. A sample buffer used was HBSS supplemented with 0.1% BSA and 0.2 mM I BMX (Sigma, Inc.). The cells were washed twice with the sample buffer and pre-incubated at 37° C. for 30 minutes. The cells were further washed twice and the sample was added thereto followed by incubation at 37° C. for 30 minutes. The sample was added in 2 μM of farnesyl diphosphate or lysophosphatidic acid. After incubation in the presence of the sample, the amount of intracellular cAMP production was assayed by using cAMP Screen System (ABI).

T1 sequence (Q9H1C0 whole entry): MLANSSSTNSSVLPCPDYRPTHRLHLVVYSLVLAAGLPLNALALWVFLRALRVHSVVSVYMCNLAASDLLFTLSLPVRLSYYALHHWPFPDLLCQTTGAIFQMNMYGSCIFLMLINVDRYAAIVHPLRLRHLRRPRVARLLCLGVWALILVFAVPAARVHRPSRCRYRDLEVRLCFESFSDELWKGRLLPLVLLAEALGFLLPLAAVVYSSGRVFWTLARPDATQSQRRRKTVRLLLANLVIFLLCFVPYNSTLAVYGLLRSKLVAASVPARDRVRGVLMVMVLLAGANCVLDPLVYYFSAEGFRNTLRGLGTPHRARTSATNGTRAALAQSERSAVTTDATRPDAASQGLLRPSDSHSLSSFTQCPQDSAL

| intracellular calcium ion mobilization activity [2] | luciferase activity ([1]; 1 μM) | amount of intracellular cAMP production [3] | Compound | luciferase activity ([1]; 1 and 0.1 μM) |
| --- | --- | --- | --- | --- |
|  |  |  | CC(C)=CCC/C(C)=C/CC/C(C)=C/CC/C(C)=C/COP(=O)(O)OP(=O)(O)O [GGPP, Geranylgeranyl diphosphate] | increased luciferase activity |
| increased specifically to CHO-TRG4 | increased luciferase activity | increased specifically to CHO-TRG4 | lysophosphatidic acid [LPA] |  |
